Results from patent US12692513B2, “Prostate neoantigens and their uses” (Janssen Biotech, Inc., priority 2020, dated 2026).

Assays:
[1] = tested on: CD8+ T cells in PBMCs from patients with metastatic castrate-resistant prostate cancer; experiment: Patient PBMC restimulation assay (TNFα+IFNγ+ CD8+ T cells); type: cell-based, human; conditions: 9mer peptide; for Maximum frequency of TNFα+IFNγ+CD8+ T cells (Percent): greatest frequency among all tested PBMC donors; for Maximum fold change over negative control: TNFα+IFNγ+CD8+ T cells, highest across PBMC donors
Protocol: PBMCs from human patients with metastatic castrate-resistant prostate cancer were thawed using media (RPMI 1640 supplemented with Glutamax, 10% HI FBS, and IX Sodium Pyruvate). Cells were counted and plated in a 96 well round bottom microplate at a concentration of 250,000 viable cells per well. Lyophilized peptides were solubilized in 100% DMSO and diluted in media to 10 μg/mL. Neoantigen peptides were added in equal volume to PBMCs for a final concentration of 5 μg/mL. CEF Peptide Pool “Plus” (Cellular Technologies, Ltd.) was utilized as a positive control and DMSO at the same final concentration as the experimental peptides was utilized as a negative control. Human IL-15 (Peprotech) was added to all wells at final concentration of 10 ng/mL.
Plates were incubated at 37° C. (5% CO2) for a total of 13 days. Media was refreshed every 2 days with IL-15 (10 ng/mL final concentration) and IL-2 (R&D systems, 10 IU/mL final concentration). On day 12, PBMCs were re-stimulated with identical experimental peptides or controls, at same concentration as peptide stimulation on Day 1. After 1-hour incubation, protein Inhibitor Cocktail (eBioscience) was added to every well and plate was incubated overnight.
On day 13, cells were stained for intracellular flow cytometry analysis. The cells were washed with PBS and stained with Live/Dead Fixable Aqua Dead Cell stain (ThermoFisher). Following the live/dead stain, cells were blocked using Biotin-Free Fc Receptor Blocker (Accurate Chemical & Scientific Corp). Extracellular cellular flow panel (1 μL/antibody per well in 50 μL) consisted of CD3 PerCP-Cy5.5 (Biolegend), CD4 BV421 (Biolegend), and CD8 APC-Cy7 (Biolegend). After extracellular staining, cells were fixed using Foxp3/Transcription Factor Staining Buffer Set (eBioscience) and stained for intracellular proteins (1:50 dilution) using TNFα FITC (R&D Systems) and IFNγ BV785 (Biolegend). Cells were washed and resuspended in stain buffer and analyzed using a BD Celesta flow cytometer.
Flow cytometry cell staining analysis was completed using Flow Jo v10. Cells were gated on live, singlet, CD3+ cells. The CD8+ T cells were analyzed for TNFα/IFNγ expression and the frequency of double positive TNFα/IFNγ CD8+ T cells was recorded. Responses were assessed to be positive when the frequency of double positive TNFα/IFNγ CD8+ T cells due to stimulation with an experimental peptide was increased greater than or equal to 2-fold over the DMSO only negative control for that patient. Peptides were analyzed in 1 to 7 patient samples.
The 9 mer fragments shown in Table 13 were assessed for their ability to activate T cells using the Patient PBMC restimulation assay described in Example 1 using TNFα and IFNγ production by CD8^+ T cells as a readout. Self-antigens shown in Table 15 were also used in the assays. […] PBMCs from ten patients were evaluated.

[2] = target: HLA-A*01:01 (Homo sapiens, UniProt P04439, A114D/A174V/A182V/D101N/D185E/E176A/E190D/L180R/Q94H/R68K/S129P/T187R/V100A/V91M/W191G); experiment: In vitro binding to class I MHC (UV peptide exchange, HLA class I ELISA); conditions: 100% = same binding as positive control peptide
Protocol: (§1) The 9 mer peptides identified by bioinformatics analysis were analyzed for their binding propensities to 6 common HLA class I alleles (HLA-A*01:01, A*02:01, A*03:01, A*24:02, B*07:02, B*08:01). The principle of the method is briefly described below and consists of two parts, one involving exchange of peptide with a positive control induced by Ultraviolet (UV) radiation, and the second is an enzyme immunoassay to detect stable HLA-peptide and empty HLA complexes. HLA-bound peptides are critical for the stability of the HLA complex. A conditional HLA class I complex was stabilized by an UV-labile peptide utilizing a different peptide (Pos) for each HLA (Pos: HLA-A*01:01: […](SEQ ID NO: 409), HLA-A*02:01: […] (SEQ ID NO: 410), HLA-A*03:01: […] (SEQ ID NO: 411), HLA-A*24:02: […] (SEQ ID NO: 412), HLA-B*07:02: […] (SEQ ID NO: 413), HLA-B*08:01: […] (SEQ ID NO: 414), which could be cleaved by UV irradiation when bound to the HLA molecule. Upon cleavage, the resulting peptide fragments dissociated from the HLA class I complex since their length was insufficient to bind stably to HLA. Under the conditions in which peptide cleavage was performed (neutral pH, on melting ice), the peptide-free HLA complex remained stable.
(§2) The exchange efficiency between the peptide of interest and Pos was analyzed using an HLA class I ELISA. The combined technologies allowed the identification of ligands for an HLA molecule of interest which are potentially immunogenic.
(§3) Exchange control peptide Pos was a high affinity binder to the relevant HLA class I allele while exchange control peptide Neg was a non-binder. The UV control represented UV-irradiation of conditional HLA class I complex in the absence of a rescue peptide.
(§4) The HLA class I ELISA is an enzyme immunoassay based on the detection of beta2-microglobulin (B2M) of (peptide-stabilized) HLA class I complexes. To this end streptavidin was bound onto polystyrene microtiter wells. After washing and blocking, HLA complex present in exchange reaction mixtures or ELISA controls was captured by the streptavidin on the microtiter plate via its biotinylated heavy chain. Non-bound material was removed by washing. Subsequently, horseradish peroxidase (HRP)-conjugated antibody to human B2M was added. The HRP-conjugated antibody binds only to an intact HLA complex present in the microtiter well because unsuccessful peptide exchange results in disintegration of the original UV-sensitive HLA complex upon UV illumination. In the latter case B2M was removed during the washing step. After removal of non-bound HRP conjugate by washing, a substrate solution was added to the wells. A colored product formed in proportion to the amount of intact HLA complex present in the samples. After the reaction was terminated by the addition of a stop solution, absorbance was measured in a microtiter plate reader. The absorbance was normalized to the absorbance of an exchange control peptide (represents 100%). Suboptimal HLA binding of peptides with a moderate to low affinity for HLA class I molecules can also be detected by this ELISA technique (Rodenko, B et al. (2006) Nature Protocols 1: 1120-32).
(§5) Peptides that had 10% or greater exchange efficiency in one of the 6 HLA alleles were considered for further immunogenicity testing and analysis.
(§6) Binding of select neoepitopes to HLA-A*01:01, HLA-A*02:01, HLA-A*03:01, HLA-A*24:02, HLA-B*07:02 and HLA-B*08:01 was evaluated using the assay described in Example 1. […] As a criterion for further evaluation, peptides with an exchange rate of at least 10% with the corresponding Pos peptide for at least one of the 6 HLA alleles that we considered for further evaluation. The exchange rates with the allele specific Pos peptides, of the 24 neoantigens so identified are summarized below in Table 17. Higher percentages correspond to stronger binding to the HLA allele.

[3] = target: HLA-A*02:01 (Homo sapiens, UniProt P04439, D140Y/D185E/D98H/E176V/E277Q/G131W/G231S/I119V/I121R/I166T/I218V/L300P/L318F/N151K/N90K/P208A/P217A/Q86G/Q94H/R138H/R169H/T345S); experiment: as above; conditions: 100% = same binding as positive control peptide
Protocol: as §1, §2, §3, §4, §5, §6

[4] = target: HLA-A*03:01 (Homo sapiens, UniProt P04439); experiment: as above; conditions: 100% = same binding as positive control peptide
Protocol: as §1, §2, §3, §4, §5, §6

[5] = target: HLA-A*24:02 (Homo sapiens, UniProt P04439, D101N/D140Y/D185E/E176V/E190D/F33S/G103R/G107R/I119L/I121M/I306V/K335N/L105A/L180Q/L300P/N151K/N90K/Q86E/Q94H/R106L/R138H/R89G/T104I/T345S/V100E/W191G/Y123F); experiment: as above; conditions: 100% = same binding as positive control peptide
Protocol: as §1, §2, §3, §4, §5, §6

[6] = target: HLA-B*07:02 (Homo sapiens, UniProt P01889); experiment: as above; conditions: 100% = same binding as positive control peptide
Protocol: as §1, §2, §3, §4, §5, §6

[7] = target: HLA-B*08:01 (Homo sapiens, UniProt P01889, A93T/A95T/D138N/E176V/E187T/K202T/Q94N/R180D/S35A/V36M/Y33D/Y91F); experiment: as above; conditions: 100% = same binding as positive control peptide
Protocol: as §1, §2, §3, §4, §5, §6

| Molecule | Maximum frequency of TNFα+IFNγ+CD8+ T cells (Percent) [1] [%] | also measured |
| --- | --- | --- |
| GVPGDSTRRAVRRMNTF (listed as Homo sapiens) [Neoantigen P16] | 4.620 | – |
| NSKMALNSLNSIDDAQLTRIAPPRSHCCFWEVNAP (listed as Homo sapiens) [Neoantigen P35] | 0.064 | – |
| P17 (GVPGDSTRRAVRRMNTF; listed as Homo sapiens) [Neoantigen P17] | 0.130 | – |
| P27 (LHPQRETFTPRWSGANYWKLAFPVGAEGTFPAAATQRGVVRPA; listed as Homo sapiens) [Neoantigen P27] | 0.430 | – |
| P37 (MAGGVLRRLLCREPDRDGDKGASREETVVPLHIGDPVVLPGIGQCYSALF; listed as Homo sapiens) [Neoantigen P37] | 1.160 | – |
| P46 (DDRNTFDIVWWCPMSRLRLALTVPPSTTTTCVTVPAWAA; listed as Homo sapiens) [Neoantigen P46] | 0.140 | – |
| P48 (VQPIARELYQFTFDLLI; listed as Homo sapiens) [Neoantigen P48] | 0.220 | – |
| P50 (QMAVIQYSCMGLMVFAM; listed as Homo sapiens) [Neoantigen P50] | 0.190 | – |
| P56 (PKSEVRAKCKFSILNAK; listed as Homo sapiens) [Neoantigen P56] | 1.620 | – |
| P58 (MMAEIISVHVPKILSGK; listed as Homo sapiens) [Neoantigen P58] | 5.370 | – |
| P59 (LHPDSGNMVENGCYLRR; listed as Homo sapiens) [Neoantigen P59] | 3.010 | – |
| P60 (CYLRRQKRLKCEKQPGA; listed as Homo sapiens) [Neoantigen P60] | 0.340 | – |
| P61 (MFENGCYLGRQKRFKCE; listed as Homo sapiens) [Neoantigen P61] | 0.084 | – |
| P73 (DSSGNLLERNSFEVRV; listed as Homo sapiens) [Neoantigen P73] | 0.110 | – |
| P97 (GYLRMQGLMAQRLLLR; listed as Homo sapiens) [Neoantigen P97] | 0.160 | – |
| P98: peptide used for stimulation of PBMC samples (FIG. 5D); sequence in a table not shown (DDRNTFDIVWWCPMSRLRLALTVPPSTTTTCVTVPAWAA; listed as Homo sapiens) [Neoantigen P98] | 1.000 | Maximum fold change over negative control [1]: 14.93; Exchange rate with allele specific Pos peptide, HLA-A*01:01 [2]: 2.5%; Exchange rate with allele specific Pos peptide, HLA-A*02:01 [3]: 7.9%; Exchange rate with allele specific Pos peptide, HLA-A*03:01 [4]: 51.1%; Exchange rate with allele specific Pos peptide, HLA-A*24:02 [5]: −0.1%; Exchange rate with allele specific Pos peptide, HLA-B*07:02 [6]: 6.7%; Exchange rate with allele specific Pos peptide, HLA-B*08:01 [7]: 2.4% |
| SLYHREKQLIAMDSAI (listed as Homo sapiens) [Neoantigen P22] | 0.120 | Maximum fold change over negative control [1]: 5.00; Exchange rate with allele specific Pos peptide, HLA-B*07:02 [6]: 8.3% |
| YEAGMTLGEKFRVGNCKHLKMTRP (listed as Homo sapiens) [Neoantigen P82] | 0.970 | – |
| YEAGMTLGGKILFFLFLLLPLSPFSLIF (listed as Homo sapiens) [Neoantigen P87] | 0.120 | – |
| P76 (peptide, listed as Homo sapiens) VFFKRAAEGFFRMNKLKESSDTNPKPYCMAAPMGLTENNRNRKKSYRETNLKAVSWPLNHT | 0.170 | Maximum fold change over negative control [1]: 2.30 |
| P77 (peptide, listed as Homo sapiens) VFFKRAAEGFFRMNKLKESSDTNPKPYCMAAPMGLTENNRNRKKSYRETNLKAVSWPLNHT | 0.160 | Maximum fold change over negative control [1]: 3.24 |
| P19 (peptide, listed as Homo sapiens) WTPIPVLTRWPLPHPPPWRRATSCRMARSSPSATSGSSVRRRCSSLPSWVWNLAASTRPRSTPS | 0.480 | – |
